Test results published in US8445676B2, “Pyrrolotriazine kinase inhibitors” (Bristol-Myers Squibb Company, priority 2008, dated 2013).

Experiments:
[1] = target: JAK2 (Homo sapiens, UniProt O60674); experiment: JAK2 Tyrosine Kinase Assay; type: biochemical; settings: ATP 30 μM; JAK2 1 nM; 60 min room temperature; read-out: Jak2(IC50)
Summary of the method: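 Reaction of JAK2 with fluorescent substrate run 60 min at room temperature and stopped with EDTA. Substrate and phosphorylated product separated electrophoretically on a Caliper LabChip. Compounds tested at eleven concentrations in duplicate, with IC50 from non-linear regression.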

[2] = target: T1, JAK3 (Homo sapiens, UniProt P52333); experiment: JAK3 Tyrosine Kinase Assay; type: biochemical; settings: ATP 8 μM; JAK3 2.5 nM; 60 min room temperature
T1 sequence (P52333 1-1124): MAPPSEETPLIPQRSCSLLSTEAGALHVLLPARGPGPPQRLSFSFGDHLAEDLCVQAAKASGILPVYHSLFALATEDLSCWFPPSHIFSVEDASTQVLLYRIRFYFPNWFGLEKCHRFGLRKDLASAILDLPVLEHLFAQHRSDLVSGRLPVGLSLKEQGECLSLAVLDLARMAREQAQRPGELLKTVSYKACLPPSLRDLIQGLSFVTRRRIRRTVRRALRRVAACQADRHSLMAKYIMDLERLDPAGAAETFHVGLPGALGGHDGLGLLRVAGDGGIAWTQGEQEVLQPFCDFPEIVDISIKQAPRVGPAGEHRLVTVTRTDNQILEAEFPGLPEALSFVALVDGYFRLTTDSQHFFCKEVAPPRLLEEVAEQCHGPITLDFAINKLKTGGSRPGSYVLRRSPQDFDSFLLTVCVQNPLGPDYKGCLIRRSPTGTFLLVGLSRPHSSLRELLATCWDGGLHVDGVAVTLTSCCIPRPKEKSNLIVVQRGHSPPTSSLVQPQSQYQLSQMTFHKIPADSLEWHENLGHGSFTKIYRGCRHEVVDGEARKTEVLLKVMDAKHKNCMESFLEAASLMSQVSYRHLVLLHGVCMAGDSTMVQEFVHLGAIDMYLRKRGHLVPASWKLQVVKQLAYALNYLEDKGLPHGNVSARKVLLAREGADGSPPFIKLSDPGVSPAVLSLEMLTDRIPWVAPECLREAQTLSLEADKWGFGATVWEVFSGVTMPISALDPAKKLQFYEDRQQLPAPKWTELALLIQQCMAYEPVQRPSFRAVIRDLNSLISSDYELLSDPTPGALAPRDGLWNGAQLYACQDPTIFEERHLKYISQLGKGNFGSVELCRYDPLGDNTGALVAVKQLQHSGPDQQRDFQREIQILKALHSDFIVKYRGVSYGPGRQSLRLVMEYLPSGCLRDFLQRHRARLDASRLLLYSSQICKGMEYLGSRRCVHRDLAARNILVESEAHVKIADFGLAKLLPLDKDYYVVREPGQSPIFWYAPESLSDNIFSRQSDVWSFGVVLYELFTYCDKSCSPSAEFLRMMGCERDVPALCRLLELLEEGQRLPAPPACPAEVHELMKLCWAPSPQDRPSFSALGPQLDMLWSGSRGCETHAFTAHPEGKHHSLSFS
Experimental: JAK3 Tyrosine Kinase Assay
The assays were performed in V-bottom 384-well plates. […] The reaction was initiated by the combination of JAK3 with substrates and test compounds. The reaction was incubated at room temperature for 60 min. and terminated by adding 45 μl of 35 mM EDTA to each sample. The reaction mixture was analyzed on the Caliper LabChip 3000 by electrophoretic separation of the fluorescent substrate and phosphorylated product. […] The final concentration of reagents in the assays is ATP, 8 μM; JAK3 fluorescent peptide, 1.5 μM; JAK3, 2.5 nM; and DMSO, 1.6%. […] Compounds were dissolved at 10 mM in dimethylsulfoxide (DMSO) and evaluated at eleven concentrations, each in duplicate. IC50 values were derived by non-linear regression analysis.

Sequence of JAK2 (O60674 whole entry): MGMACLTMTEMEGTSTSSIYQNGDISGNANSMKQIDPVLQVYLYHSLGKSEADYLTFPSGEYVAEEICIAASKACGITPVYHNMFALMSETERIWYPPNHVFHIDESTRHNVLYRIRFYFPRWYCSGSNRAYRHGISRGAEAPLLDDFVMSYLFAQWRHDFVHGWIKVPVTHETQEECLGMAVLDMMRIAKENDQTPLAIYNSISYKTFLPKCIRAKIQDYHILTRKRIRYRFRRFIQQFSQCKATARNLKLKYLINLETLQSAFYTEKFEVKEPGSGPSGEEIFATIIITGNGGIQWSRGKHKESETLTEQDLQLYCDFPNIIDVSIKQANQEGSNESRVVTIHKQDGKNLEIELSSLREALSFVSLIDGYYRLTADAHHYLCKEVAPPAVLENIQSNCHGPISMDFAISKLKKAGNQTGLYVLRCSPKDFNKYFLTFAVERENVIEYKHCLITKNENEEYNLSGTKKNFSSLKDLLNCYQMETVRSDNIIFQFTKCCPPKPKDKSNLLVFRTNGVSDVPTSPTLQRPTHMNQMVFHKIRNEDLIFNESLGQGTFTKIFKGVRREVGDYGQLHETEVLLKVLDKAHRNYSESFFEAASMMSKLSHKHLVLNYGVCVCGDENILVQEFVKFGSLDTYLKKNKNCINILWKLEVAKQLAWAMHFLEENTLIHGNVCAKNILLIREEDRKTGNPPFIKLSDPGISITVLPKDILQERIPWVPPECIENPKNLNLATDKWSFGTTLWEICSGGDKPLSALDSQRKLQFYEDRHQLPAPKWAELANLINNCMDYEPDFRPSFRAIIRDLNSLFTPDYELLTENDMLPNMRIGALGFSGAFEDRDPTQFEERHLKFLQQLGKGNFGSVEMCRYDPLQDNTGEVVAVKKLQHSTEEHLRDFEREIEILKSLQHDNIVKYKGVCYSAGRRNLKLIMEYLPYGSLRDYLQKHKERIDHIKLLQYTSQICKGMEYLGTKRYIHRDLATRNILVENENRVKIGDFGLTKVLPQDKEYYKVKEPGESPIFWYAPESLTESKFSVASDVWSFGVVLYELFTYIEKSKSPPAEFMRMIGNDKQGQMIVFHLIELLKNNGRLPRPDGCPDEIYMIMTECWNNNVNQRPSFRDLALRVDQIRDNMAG

IC50 [1] [nM] | IC50 [2] [nM] | SMILES
7.25 | 120 | Cc1cc(Nc2nc(N3CCN(C(=O)c4ccccc4-c4ccccc4)CC3)nn3cccc23)n[nH]1 [Example 200, 2-(4-(2-biphenylylcarbonyl)-1-piperazinyl)-N-(5-methyl-1H-pyrazol-3-yl)pyrrolo[2,1-f][1,2,4]triazin-4-amine]
300 | 1740 | Cc1cc(Nc2nc(N3CCN(C(=O)C(C)(C)N(C)C(=O)OC(C)(C)C)CC3)nn3cccc23)n[nH]1 [Example 158, tert-butyl(1,1-dimethyl-2-(4-(4-((5-methyl-1H-pyrazol-3-yl)amino)pyrrolo[2,1-f] [1,2,4]triazin-2-yl)-1-piperazinyl)-2-oxoethyl)methylcarbamate]
6.65 | 90 | Cc1cc(Nc2nc(N3CCN(C(=O)c4ncccn4)CC3)nn3cccc23)n[nH]1 [Example 95, N-(5-methyl-1H-pyrazol-3-yl)-2-(4-(2-pyrimidinylcarbonyl)-1-piperazinyl)pyrrolo[2,1-f] [1,2,4]triazin-4-amine]
0.604 | 9.84 | Cc1cc(Nc2nc(N3CCN(C(=O)Cc4ccccc4C(F)(F)F)CC3)nn3cccc23)n[nH]1 [Example 10, N-(5-methyl-1H-pyrazol-3-yl)-2-(4-((2-(trifluoromethyl)phenyl)acetyl)-1-piperazinyl)pyrrolo[2,1-f][1,2,4]triazin-4-amine]
2660 | 50000 | Cc1cc(Nc2nc(N3CCN(C(=O)Cc4ccc(C(F)(F)F)cc4)CC3)nn3cccc23)n[nH]1 [Example 43, N-(5-methyl-1H-pyrazol-3-yl)-2-(4-((4-(trifluoromethyl)phenyl)acetyl)-1-piperazinyl)pyrrolo[2,1-f][1,2,4]triazin-4-amine]
590 | 9480 | Cc1cc(Nc2nc(N3CCN(C(=O)[C@@](C)(O)c4ccccc4)CC3)nn3cccc23)n[nH]1 [Example 211, (2S)-1-(4-(4-((5-methyl-1H-pyrazol-3-yl)amino)pyrrolo[2,1-f][1,2,4]triazin-2-yl)-1-piperazinyl)-1-oxo-2-phenyl-2-propanol]
150 | 1410 | Cc1cc(Nc2nc(N3CCN(C(=O)C4(c5ccc(F)cc5)CCCCC4)CC3)nn3cccc23)n[nH]1 [Example 126, 2-(4-((1-(4-fluorophenyl)cyclohexyl)carbonyl)-1-piperazinyl)-N-(5-methyl-1H-pyrazol-3-yl)pyrrolo[2,1-f] [1,2,4]triazin-4-amine]
0.903 | 20 | Cc1cc(Nc2nc(N3CCN(C(=O)Cc4cccc(C(F)(F)F)c4)CC3)nn3cccc23)n[nH]1 [Example 48, N-(5-methyl-1H-pyrazol-3-yl)-2-(4-((3-(trifluoromethyl)phenyl)acetyl)-1-piperazinyl)pyrrolo[2,1-f][1,2,4]triazin-4-amine]
320 | 2060 | Cc1cc(Nc2nc(N3CCN(C(=O)C(C)(C)c4ccccc4)CC3)nn3cccc23)n[nH]1 [Example 7, 2-(4-(2-methyl-2-phenylpropanoyl)-1-piperazinyl)-N-(5-methyl-1H-pyrazol-3-yl)pyrrolo[2,1-f] [1,2,4]triazin-4-amine]
7.07 | 210 | Cc1cc(Nc2nc(N3CCN(C(=O)C(C)(C)C)CC3)nn3cccc23)n[nH]1 [Example 168, 2-(4-(2,2-dimethylpropanoyl)-1-piperazinyl)-N-(5-methyl-1H-pyrazol-3-yl)pyrrolo[2,1-f][1,2,4]triazin-4-amine]
0.971 | 30 | Cc1cc(Nc2nc(N3CCN(C(=O)[C@@H](NC(=O)OC(C)(C)C)c4ccc(F)cc4)CC3)nn3cccc23)n[nH]1 [Example 132, tert-butyl((1S)-1-(4-fluorophenyl)-2-(4-(4-((5-methyl-1H-pyrazol-3-yl)amino)pyrrolo[2,1-f][1,2,4]triazin-2-yl)-1-piperazinyl)-2-oxoethyl)carbamate]
1.12 | 30 | Cc1cc(Nc2nc(N3CCN(C(=O)Cc4c(Cl)cccc4Cl)CC3)nn3cccc23)n[nH]1 [Example 38, 2-(4-((2,6-dichlorophenyl)acetyl)-1-piperazinyl)-N-(5-methyl-1H-pyrazol-3-yl)pyrrolo[2,1-f][1,2,4]triazin-4-amine]
8.14 | 50 | Cc1cc(Nc2nc(N3CCN(C(=O)c4c(F)cccc4F)CC3)nn3cccc23)n[nH]1 [Example 20, 2-(4-(2,6-difluorobenzoyl)-1-piperazinyl)-N-(5-methyl-1H-pyrazol-3-yl)pyrrolo[2,1-f] [1,2,4]triazin-4-amine]
7.14 | 40 | Cc1cc(Nc2nc(N3CCN(C(=O)c4ccns4)CC3)nn3cccc23)n[nH]1 [Example 106, 2-(4-(5-isothiazolylcarbonyl)-1-piperazinyl)-N-(5-methyl-1H-pyrazol-3-yl)pyrrolo[2,1-f] [1,2,4]triazin-4-amine]
0.887 | 8.41 | Cc1cc(Nc2nc(N3CCN(C(=O)Cc4ccc(C(F)(F)F)cc4C(F)(F)F)CC3)nn3cccc23)n[nH]1 [Example 134, 2-(4-((2,4-bis(trifluoromethyl)phenyl)acetyl)-1-piperazinyl)-N-(5-methyl-1H-pyrazol-3-yl)pyrrolo[2,1-f] [1,2,4]triazin-4-amine]
240 | 1490 | CCC(O)(CC)C(=O)N1CCN(c2nc(Nc3cc(C)[nH]n3)c3cccn3n2)CC1 [Example 164, 3-((4-(4-((5-methyl-1H-pyrazol-3-yl)amino)pyrrolo[2,1-f] [1,2,4]triazin-2-yl)-1-piperazinyl)carbonyl)-3-pentanol]
1.14 | 5.98 | Cc1cc(Nc2nc(N3CCN(C(=O)c4ccc(F)cc4)CC3)nn3cccc23)n[nH]1 [Example 24, 2-(4-(4-fluorobenzoyl)-1-piperazinyl)-N-(5-methyl-1H-pyrazol-3-yl)pyrrolo[2,1-f][1,2,4]triazin-4-amine]
6.83 | 200 | Cc1ccc(C2(C(=O)N3CCN(c4nc(Nc5cc(C)[nH]n5)c5cccn5n4)CC3)CC2)cc1 [Example 187, 2-(4-((1-(4-methylphenyl)cyclopropyl)carbonyl)-1-piperazinyl)-N-(5-methyl-1H-pyrazol-3-yl)pyrrolo[2,1-f][1,2,4]triazin-4-amine]
0.697 | 20 | Cc1cc(Nc2nc(N3CCN(C(=O)Cc4ccc(OC(F)(F)F)cc4)CC3)nn3cccc23)n[nH]1 [Example 91, N-(5-methyl-1H-pyrazol-3-yl)-2-(4-((4-(trifluoromethoxy)phenyl)acetyl)-1-piperazinyl)pyrrolo[2,1-f][1,2,4]triazin-4-amine]
7.9 | 170 | COc1cccc(CC(=O)N2CCN(c3nc(Nc4cc(C)[nH]n4)c4cccn4n3)CC2)c1 [Example 49, 2-(4-((3-methoxyphenyl)acetyl)-1-piperazinyl)-N-(5-methyl-1H-pyrazol-3-yl)pyrrolo[2,1-f][1,2,4]triazin-4-amine]
8.15 | 70 | CO[C@H](C(=O)N1CCN(c2nc(Nc3cc(C)[nH]n3)c3cccn3n2)CC1)c1ccccc1 [Example 90, 2-(4-((2S)-2-methoxy-2-phenylacetyl)-1-piperazinyl)-N-(5-methyl-1H-pyrazol-3-yl)pyrrolo[2,1-f] [1,2,4]triazin-4-amine]
0.891 | 10 | COc1ccc(CC(=O)N2CCN(c3nc(Nc4cc(C)[nH]n4)c4cccn4n3)CC2)cc1 [Example 45, 2-(4-((4-methoxyphenyl)acetyl)-1-piperazinyl)-N-(5-methyl-1H-pyrazol-3-yl)pyrrolo[2,1-f][1,2,4]triazin-4-amine]
